Results from patent publication US20210378246A1, “COMPOSITIONS COMPRISING HALAUXIFEN AND OTHER HERBICIDES AND METHODS THEREOF” (DOW AGROSCIENCES LLC, priority 2018, published 2021).
“And” between values parts separate entries of the source, which are not always exact repeats. Equal entries are not always repeated.

Experiments:
Test in all cases: Greenhouse post-emergence weed control, visual score 0-100 percent
Assay type in all cases: in vivo
[1] = system: Chenopodium album L. (common lambsquarters, CHEAL)
Description: (§1) Results in Examples are greenhouse trial results.
(§2) Seeds or nutlets of the desired test plant species were planted in a soil matrix prepared by mixing a loam or sandy loam soil (e.g., 28.6 percent silt, 18.8 percent clay, and 52.6 percent sand, with a pH of about 5.8 and an organic matter content of about 1.8 percent) and calcareous grit in an 80 to 20 ratio. The soil matrix was contained in plastic pots with a volume of 1 quart and a surface area of 83.6 cm2. When required to ensure good germination and healthy plants, a fungicide treatment and/or other chemical or physical treatment was applied. The plants were grown for 8-22 days in a greenhouse with an approximate 14 h photoperiod which was maintained at about 29° C. during the day and 26° C. during the night. Nutrients (Peters Excel® 15-5-15 5-Ca 2-Mg and iron chelate) were applied in the irrigation solution as needed and water was added on a regular basis. Supplemental lighting was provided with overhead metal halide 1000-Watt lamps as necessary. The plants were employed for testing when they reached the first through fourth true leaf stage.
(§3) Treatments comprised of the acid or esters of halauxifen-methyl (methyl 4-amino-3-chloro-6-(4-chloro-2-fluoro-3-methoxyphenyl)picolinate), each formulated as an SC (suspension concentrate), and various herbicidal components alone and in combination. A form of the compound of Formula I were applied on an acid equivalent basis.
(§4) Treatment requirements were calculated based upon the rates being tested, the concentration of active ingredient or acid equivalent in the formulation, and a 12 mL application volume at a rate of 187 L/ha.
(§5) For treatments comprised of formulated and technical compounds, weighed amounts of the technical materials were placed individually in 25 mL glass vials and dissolved in a volume of 97:3 v/v acetone/DMSO to obtain 12× stock solutions, and measured amounts of the formulated compounds were placed individually in 25 mL glass vials and diluted in a volume of 1.5% (v/v) crop oil concentrate or water to obtain 12× stock solutions. […] As required, additional water and/or 97:3 v/v acetone/DMSO was added to individual application solutions so that the final acetone and DMSO concentrations of the application solutions being compared were 8.1% and 0.25%, respectively.
(§6) All stock solutions and applications solutions were visually inspected for compound compatibility prior to application. Spray solutions were applied to the plant material with an overhead Mandel track sprayer equipped with an 8002E nozzle calibrated to deliver 187 L/ha over an application area of 0.503 m2 at a spray height of 18 to 20 inches (46 to 50 cm) above average plant canopy height. Control plants were sprayed in the same manner with the solvent blank.
The treated plants and control plants were placed in a greenhouse as described above and watered by sub-irrigation to prevent wash-off of the test compounds. […], the condition of the test plants as compared with that of the untreated plants was determined visually and scored on a scale of 0 to 100 percent where 0 corresponds to no injury or growth inhibition and 100 corresponds to complete kill.

[2] = system: Sinapis arvensis L. (wild mustard, SINAR)
Description: as §1, §2, §3, §4, §5, §6
(§7) The treated plants and control plants were placed in a greenhouse as described above and watered by sub-irrigation to prevent wash-off of the test compounds. After approximately […], the condition of the test plants as compared with that of the untreated plants was determined visually and scored on a scale of 0 to 100 percent where 0 corresponds to no injury or growth inhibition and 100 corresponds to complete kill.

[3] = system: Amaranthus rudis Sauer, (common waterhemp, AMATA); details: 7 DAA
Description: as §1, §2, §3, §4, §5, §6, §7

[4] = system: Abutilon theophrasti Medik. (velvetleaf, ABUTH)
Description: as §1, §2, §3, §4, §5, §6, §7

[5] = system: Polygonum convolvulus L. (wild buckwheat, POLCO)
Description: as §1, §2, §3, §4, §5, §6, §7

Compound: CCCCCCC(C)OC(=O)COc1nc(F)c(Cl)c(N)c1Cl (stereo not drawn) [Chemical 3, 1-methytheptyl 2-[(4-amino-3,5-dichloro-6-fluoro-2-pyridinyl)oxy]acetate]
- Chemical 3 Mean % Weed Control ([1]; 7 DAA, alone at 8.8 gae/ha): 0%
- Chemical 3 Mean % Weed Control ([1]; 7 DAA, alone at 17.S gae/ha): 0%
- Chemical 3 Mean % Weed Control ([1]; 7 DAA, alone at 17.5 gae/ha): 0%
- Chemical 3 Mean % Weed Control ([1]; 7 DAA, alone at 35 gae/ha): 0%
- Chemical 3 Mean % Weed Control ([1]; 7 DAA, alone at 70 gae/ha): 10%
- Chemical 3 Mean % Weed Control ([1]; 14 DAA, alone at 8.8 gae/ha): 0%
- Chemical 3 Mean % Weed Control ([1]; 14 DAA, alone at 17.5 gae/ha): 10% and 5%
- Chemical 3 Mean % Weed Control ([1]; 14 DAA, alone at 35 gae/ha): 5% and 3.75% and 1.75%
- Chemical 3 Mean % Weed Control ([1]; 14 DAA, alone at 70 gae/ha): 31.25% and 35%
- Chemical 3 Mean % Weed Control ([1]; 17 DAA, alone at 8.8 gae/ha): 0%
- Chemical 3 Mean % Weed Control ([1]; 17 DAA, alone at 17.5 gae/ha): 8.75%
- Chemical 3 Mean % Weed Control ([1]; 17 DAA, alone at 35 gae/ha): 3.75%
- Chemical 3 Mean % Weed Control ([1]; 17 DAA, alone at 70 gae/ha): 38.75%
- Chemical 3 Mean % Weed Control ([2]; 14 DAA, alone at 35 gae/ha): 63.75%
- Chemical 3 Mean % Weed Control ([2]; 21 DAA, alone at 17.5 gae/ha): 54.25%
- Chemical 3 Mean % Weed Control ([3]; alone at 8.8 gae/ha): 0%
- Chemical 3 Mean % Weed Control ([3]; alone at 17.5 gae/ha): 3.75%
- Chemical 3 Mean % Weed Control ([3]; alone at 35 gae/ha): 3.75%
- Chemical 3 Mean % Weed Control ([4]; 7 DAA, alone at 8.8 gae/ha): 15%
- Chemical 3 Mean % Weed Control ([4]; 7 DAA, alone at 17.5 gae/ha): 28.75%
- Chemical 3 Mean % Weed Control ([4]; 7 DAA, alone at 35 gae/ha): 67.5%
- Chemical 3 Mean % Weed Control ([4]; 7 DAA, alone at 70 gae/ha): 75.5%
- Chemical 3 Mean % Weed Control ([4]; 14 DAA, alone at 8.8 gae/ha): 2.5%
- Chemical 3 Mean % Weed Control ([4]; 14 DAA, alone at 17.5 gae/ha): 20%
- Chemical 3 Mean % Weed Control ([4]; 14 DAA, alone at 35 gae/ha): 67%
- Chemical 3 Mean % Weed Control ([4]; 14 DAA, alone at 70 gae/ha): 70%
- Chemical 3 Mean % Weed Control ([5]; 7 DAA, alone at 8.6 gae/ha): 52.5%
- Chemical 3 Mean % Weed Control ([5]; 7 DAA, alone at 8.8 gae/ha): 52.5%
- Chemical 3 Mean % Weed Control ([5]; 7 DAA, alone at 17.5 gae/ha): 47.5%
- Chemical 3 Mean % Weed Control ([5]; 14 DAA, alone at 8.8 gae/ha): 12.5%
- Chemical 3 Mean % Weed Control ([5]; 14 DAA, alone at 17.5 gae/ha): 62.25%
- Chemical 3 Mean % Weed Control ([5]; 21 DAA, alone at 8.8 gae/ha): 0%

Compound: COC(=O)c1nc(-c2ccc(Cl)c(OC)c2F)cc(N)c1Cl [Chemical 1, methyl 4-amino-3-chloro-6-(4-chloro-2-fluoro-3-methoxyphenyl)picolinate]
- Chemical 1 Mean % Weed Control ([1]; 7 DAA, alone at 1 gae/ha): 28.75%
- Chemical 1 Mean % Weed Control ([1]; 7 DAA, alone at 2 gae/ha): 56.25%
- Chemical 1 Mean % Weed Control ([1]; 7 DAA, alone at 4 gae/ha): 56.25%
- Chemical 1 Mean % Weed Control ([1]; 14 DAA, alone at 1 gae/ha): 33.33% and 40%
- Chemical 1 Mean % Weed Control ([1]; 14 DAA, alone at 2 gae/ha): 60%
- Chemical 1 Mean % Weed Control ([1]; 14 DAA, alone at 4 gae/ha): 62.5% and 63.33%
- Chemical 1 Mean % Weed Control ([1]; 17 DAA, alone at 1 gae/ha): 40%
- Chemical 1 Mean % Weed Control ([1]; 17 DAA, alone at 2 gae/ha): 53.75%
- Chemical 1 Mean % Weed Control ([1]; 17 DAA, alone at 4 gae/ha): 62.5%
- Chemical 1 Mean % Weed Control ([2]; 14 DAA, alone at 4 gae/ha): 0%
- Chemical 1 Mean % Weed Control ([2]; 21 DAA, alone at 1 gae/ha): 1.25%
- Chemical 1 Mean % Weed Control ([3]; alone at 2 gae/ha): 70.5%
- Chemical 1 Mean % Weed Control ([3]; alone at 4 gae/ha): 73%
- Chemical 1 Mean % Weed Control ([4]; 7 DAA, alone at 1 gae/ha): 81.25%
- Chemical 1 Mean % Weed Control ([4]; 7 DAA, alone at 2 gae/ha): 81.25%
- Chemical 1 Mean % Weed Control ([4]; 7 DAA, alone at 4 gae/ha): 84.5%
- Chemical 1 Mean % Weed Control ([4]; 14 DAA, alone at 2 gae/ha): 87.25%
- Chemical 1 Mean % Weed Control ([5]; 7 DAA, alone at 1 gae/ha): 2.5%
- Chemical 1 Mean % Weed Control ([5]; 7 DAA, alone at 2 gae/ha): 11.25%
- Chemical 1 Mean % Weed Control ([5]; 7 DAA, alone at 4 gae/ha): 28.75%
- Chemical 1 Mean % Weed Control ([5]; 14 DAA, alone at 2 gae/ha): 0%
- Chemical 1 Mean % Weed Control ([5]; 14 DAA, alone at 4 gae/ha): 20%
- Chemical 1 Mean % Weed Control ([5]; 21 DAA, alone at 1 gae/ha): 0%
- Chemical 1 Mean % Weed Control ([5]; 21 DAA, alone at 2 gae/ha): 6.25%
- Chemical 1 Mean % Weed Control ([5]; 21 DAA, alone at 4 gae/ha): 17.5%
